Test results: patent US8613928B2, “Immunizing composition and method for inducing an immune response against the β-secretase cleavage site of amyloid precursor protein” (Ramot at Tel-Aviv University Ltd., priority 2002, dated 2013)
No end group written: not given here.

Key:
[1] = test system: serum antibody raised against f88-EFRH; conditions: ELISA, read-out: IC50, competitive inhibition, MICE SERUM; cited from earlier work
[2] = test system: amyloid anti-aggregating antibody; conditions: Frenkel et al. 1998, ELISA, read-out: IC50, competitive inhibition, anti-aggregating antibody*; cited from earlier work
[3] = test system: Balb/c mice; test: Immunization of Balb/c mice with MAP conjugated peptides, IgG titer by ELISA; assay type: in vivo; conditions: injection every two weeks with Freund's adjuvant, compared among 3 MAP peptides, FIG. 3
Method: 3 groups of Balb/c mice were injected with 3 different MAP (octa-branched) conjugated peptides: ISEVKMDA (residues 1-8 of SEQ ID NO:1, where residue 6 is Met), VKMDAEFRH (SEQ ID NO:5) and ISEVKLDA (residues 1-8 of SEQ ID NO:1, where residue 6 is Leu). The stock solution (2 mg/ml) was prepared as follows: 1000 μl of double distilled water (DDW), 665 μl of Freund's adjuvant (Complete Freund's adjuvant on first injection and Incomplete Freund's adjuvant on subsequent injections) and 335 μl of peptide stock solution. 300 μl of the vaccination solution (immunizing composition) was injected into each mouse every two weeks after initial injection.
96-well ELISA. plates were coated with 50 μl/well peptide stock solution at dilution of 1:500 in coating buffer (0.1M Na2CO3, pH 9.6) and incubated overnight at 4° C. The plates were washed with 2×PBS (0.05% TWEEN) and 2×PBS, blocked with 3% milk/PBS 180 μl/well and incubated for 1.5 hr at 37° C. Serum dilutions in 1% milk/PBS 50 μl/well were incubated for 1 hr at 37° C., then washed again with 50 μl/well α-mouse-IgG (H+L)HRP conjugated with dilution of 1:5000 in 1% milk/PBS incubated for 1 hr at 37° C. Additional washings contained PBS (0.05% TWEEN) and finally PBS. Reaction was done with 50 μl/well of 15 ml 0.05M citrate buffer with 30 mg OPD and 5 μl of 30% H2O2. […]

Aβ(1-40): full length Aβ-peptide (1-40)
IC50 [1]: 3 µM
IC50 [2]: 0.8 µM

DAEFRH [residues 1-6 of Aβ]
IC50 [1]: 3 µM
IC50 [2]: 0.8 µM

DAEFRHD [residues 1-7 of Aβ]
IC50 [1]: 5 µM
IC50 [2]: 0.9 µM

DAEFRHDSG [residues 1-9 of Aβ]
IC50 [1]: 5 µM
IC50 [2]: 1 µM

EFRH [residues 3-6 of Aβ]
IC50 [1]: 6 µM
IC50 [2]: 3 µM

FRH (Amyloid-beta protein 40; UniProt P05067 675-677, looked up, fragment) [residues 4-6 of Aβ]
IC50 [1]: ~1000 µM
IC50 [2]: 3000 µM

MAP-ISEVKLDA: octavalent multiple antigenic peptide with ISEVKLDA (residues 1-8 of SEQ ID NO:1, residue 6 Leu), Swedish mutation β-secretase cleavage site epitope (also: octavalent multiple antigenic peptide on MAP core; listed as Homo sapiens)
immune response after immunization [3]: highest immune response
